Reference: publication PMC5653735, “Comparison of the oxidation of carcinogenic aristolochic acid I and II by microsomal cytochromes P450 in vitro: experimental and theoretical approaches” (Monatshefte Fur Chemie, 2017)

Target: T1, CYP3A1 (Rattus norvegicus, UniProt P04800)
T1 construct: recombinant rat CYP3A1 in Supersomes (microsomes of baculovirus-transfected insect cells); with NADPH:CYP oxidoreductase (POR) and/or cytochrome b5
T1 sequence (P04800 1-504): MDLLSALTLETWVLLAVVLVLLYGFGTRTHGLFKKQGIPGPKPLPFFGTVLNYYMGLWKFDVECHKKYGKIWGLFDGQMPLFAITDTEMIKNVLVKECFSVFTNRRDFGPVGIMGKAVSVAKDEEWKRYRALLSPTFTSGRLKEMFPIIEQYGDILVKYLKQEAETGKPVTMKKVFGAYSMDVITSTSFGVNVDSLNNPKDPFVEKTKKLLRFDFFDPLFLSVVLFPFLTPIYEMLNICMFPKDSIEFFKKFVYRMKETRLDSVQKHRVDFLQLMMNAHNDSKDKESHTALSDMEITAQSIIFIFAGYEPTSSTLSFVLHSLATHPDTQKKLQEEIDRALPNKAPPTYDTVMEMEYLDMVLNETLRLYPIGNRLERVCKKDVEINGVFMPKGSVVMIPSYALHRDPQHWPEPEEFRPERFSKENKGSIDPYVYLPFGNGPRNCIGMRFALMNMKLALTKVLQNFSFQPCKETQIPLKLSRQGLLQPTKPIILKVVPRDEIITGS
Experiment: HPLC of AAIa formed from AAII by recombinant CYP in insect-cell microsomes
Assay type: cell-based

O=C(O)c1cc2c(c3c1c([N+](=O)[O-])cc1ccccc13)OCO2 [AAII, 6-nitrophenanthro[3,4-d]-1,3-dioxole-5-carboxylic acid]
HPLC of AAIa formed from AAII by recombinant CYP in insect-cell microsomes: only rat CYP of the 3A subfamily, CYP3A1, but not CYP3A2, was capable of oxidizing AAII to AAIa
